Measured values reported in patent US10689365B2, “Substituted 2-alkylimidazolylcarboxamides as pesticides” (Bayer CropScience Aktiengesellschaft, priority 2016, dated 2020).
Read-outs that look alike come from different tables or passages of the source.

Tests used:
Aphis gossypii = Aphis gossypii - spray test (APHIGO S), cotton plants; type: in vivo; conditions: 144 h, 6 dat, read-out: % efficacy
Procedure: Aphis gossypii—Spray Test (APHIGO S)
(§1) Solvent: 14 parts by weight of dimethylformamide
(§2) Emulsifier: alkylaryl polyglycol ether
(§3) To produce a suitable active compound preparation, 1 part by weight of active compound is dissolved using the stated parts by weight of solvent and made up with water containing an emulsifier concentration of 1000 ppm until the desired concentration is attained. To produce further test concentrations, the formulation is diluted with emulsifier-containing water. If the addition of ammonium salts or/and penetrants is required, these are each added in a concentration of 1000 ppm to the formulation solution.
Cotton plants (Gossypium hirsutum) heavily infested by the cotton aphid (Aphis gossypii) are sprayed with an active ingredient formulation of the desired concentration.
After the desired time, the kill in % is determined. 100% means that all the aphids have been killed; 0% means that no aphids have been killed.

Myzus persicae [1] = test: Myzus persicae - oral test; type: in vivo; conditions: Myzus persicae, po, 120 h; application rate 20 ppm, after 5 days; read-out: efficacy
Outline: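 Aphid feeding test: compound dissolved in acetone, diluted with water and mixed with IPL41 insect medium plus sugar, offered through parafilm to a mixed population of green peach aphids. Mortality scored after 5 days as % efficacy (100% = all aphids dead, 0% = none dead).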

Myzus persicae [2] = test: Myzus persicae - spray test (Chinese cabbage leaf discs); type: in vivo; conditions: Myzus persicae, foliar; application rate 500 g/ha, after 5-6 days; read-out: efficacy
Outline: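 Chinese cabbage leaf discs carrying all aphid stages were sprayed with compound dissolved in acetone/dimethylformamide and diluted in water with 1000 ppm alkylaryl polyglycol ether emulsifier. Efficacy was recorded after 5-6 days as % aphids killed (100% = all, 0% = none).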

Myzus persicae [3] = test: Myzus persicae - spray test (MYZUPE), Chinese cabbage leaf discs; type: in vivo; conditions: foliar, 120 h, 5 dat; for percent efficacy (aphid mortality) at 100 g/ha: 100 g of ai/ha
Procedure: Myzus persicae—Spray Test (MYZUPE)
Solvent: 78.0 parts by weight of acetone • • 1.5 parts by weight of dimethylformamide
as §2
as §3, with “water.” for “water. If the addition of ammonium salts or/and penetrants is required, these are each added in a concentration of 1000 ppm to the formulation solution.”
Discs of Chinese cabbage leaves (Brassica pekinensis) infested by all stages of the green peach aphid (Myzus persicae) are sprayed with an active compound preparation of the desired concentration.
(§4) After the desired period of time, the efficacy in % is determined. 100% means that all the aphids have been killed; 0% means that no aphids have been killed.

Myzus persicae [4] = test: Myzus persicae - spray test (MYZUPE S), bell pepper plants; type: in vivo; conditions: 144 h, 6 dat, read-out: % efficacy
Procedure: Myzus persicae—Spray Test (MYZUPE S)
as §1, §2
as §3, with “with” for “using”, “specified” for “stated”
Bell pepper plants (Capsicum annuum) severely infested with the green peach aphid (Myzus persicae) are treated by spraying with the active ingredient formulation in the desired concentration.
After the desired time, the kill in % is determined. 100% means that all the animals have been killed; 0% means that no animals have been killed.

[5] = log P by HPLC on reversed-phase (C18) columns, OECD Guideline 117; type: physicochemical; conditions: reversed-phase (C18) HPLC column
Outline: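 Reversed-phase C18 HPLC per OECD 117, LC-MS with a linear 10% to 95% acetonitrile gradient. Acidic method at pH 2.7 with 0.1% formic acid; neutral method at pH 7.8 with 0.001 M ammonium hydrogencarbonate.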

Myzus persicae [6] = test: Myzus persicae - drench test (MYZUPE D), Savoy cabbage in soil; type: in vivo; conditions: 240 h, 10 dat, read-out: % efficacy
Procedure: Myzus persicae—Drench Test (MYZUPE D)
To produce a suitable active compound preparation, 1 part by weight of active compound is mixed with the specified amounts of solvent and emulsifier, and the concentrate is diluted with water to the desired concentration, it being necessary to include the volume of soil which is drenched in the calculation. It should be ensured that a concentration of 40 ppm of emulsifier in the soil is not exceeded. To produce further test concentrations, water is used for dilution.
Savoy cabbage (Brassica oleracea) in pots with soil and infested by all stages of the green peach aphid (Myzus persicae) is watered with an active compound preparation of the desired concentration.
as §4

Myzus persicae [7] = test: Myzus persicae - oral test (MYZUPE O); type: in vivo; conditions: 120 h, 5 dat, read-out: % efficacy
Procedure: Myzus persicae—Oral Test (MYZUPE O)
Solvent: 100 parts by weight of acetone
To produce a suitable preparation of active compound, 1 part by weight of active compound is dissolved using the specified parts by weight of solvent and made up with water until the desired concentration is attained.
50 μl of the active compound preparation are transferred into microtitre plates and made up to a final volume of 200 μl with 150 μl of IPL41 insect medium (33%+15% sugar). Subsequently, the plates are sealed with parafilm, which a mixed population of green peach aphids (Myzus persicae) within a second microtitre plate is able to puncture and imbibe the solution through it.
as §4

[8] = acidic range, pH 2.7, 0.1% aqueous formic acid/acetonitrile, read-out: logP[a]
[9] = neutral range, pH 7.8, aqueous ammonium hydrogencarbonate/acetonitrile, read-out: logP[n]

chromatographic logP [5, 8]	chromatographic logP [5, 9]	SMILES	Emax at 0.8 ppm (Aphis gossypii; 0.8 ppm)	Emax at 4 ppm (Aphis gossypii; 4 ppm)	pest or weed control at 20 ppm (Myzus persicae [1])	pest or weed control at 500 g/ha (Myzus persicae [2])	percent efficacy (aphid mortality) at 20 g/ha (Myzus persicae [3]; 20 g of ai/ha)	percent efficacy (aphid mortality) at 100 g/ha (Myzus persicae [3])	Emax at 0.16 ppm (Myzus persicae [4])	Emax at 0.16 ppm (Myzus persicae [6])	Emax at 4 ppm (Myzus persicae [7])	percent kill (mortality) of aphids at a fixed dose at 4 ppm (Aphis gossypii; 4 ppm)	Emax at 20 g/ha (Myzus persicae [3]; 20 g of ai/ha, read-out: % efficacy)	percent kill (mortality) of aphids at a fixed dose at 0.8 ppm (Aphis gossypii; 0.8 ppm)
1.32	2.05	CCN(C(=O)c1cnc(CSCC(C)C)n1C)c1cccnc1 [Example I-1-51]	99%	99%	100%	100%	90%	90%	99%	98%	100%			
1.29	1.93	CCN(C(=O)c1cnc(CSC(C)(C)C)n1C)c1cccnc1 [Example I-1-52]			100%	90%		90%	99%	95%	100%	90%	70%	
1.19	1.82	CCN(C(=O)c1cnc(CSCC2CC2)n1C)c1cccnc1 [Example I-1-53]		97%	100%	100%	100%	100%	99%	90%	100%			98%
1.68	2.34	CCN(C(=O)c1cnc(CSCC(C)(C)C)n1C)c1cccnc1 [Example I-1-54]		95%	100%	90%	90%	90%	99%	90%	100%			90%
